Where a name gives a salt, the structure may show the parent alone. Read-outs that look alike come from different tables or passages of the source.
Assays:
HUH-7 liver cancer cells = type: cell-based
Procedure: A model of bile-acid induced liver injury was developed using HUH-7 liver cancer cells growing in culture. These were treated with increasing concentrations of DCA and GCDCA and the effect monitored using cell count on a high content platform (for example on an IN Cell analyser), MTT as a measure of metabolic activity and propidium iodide (PI). PI is normally cell impermeable so cellular staining is used as a way to detect cells with damaged walls. Appearance of PI positive cells soon after treatment with bile acid and PI indicated necrosis possibly through surfactant damage to the cell wall. A reduction in cell number or metabolic activity occurred without significant PI staining is consistent with an apoptotic form of cell death. DCA caused significant cell death in the range 200-500 μM associated with apoptosis because of the low levels of PI staining. […] (See FIG. 3(a) and FIG. 3(b)).

HUH-7 cells [1] = experiment: Cytoprotection model: GCDCA-induced cell death in HUH-7 cells; type: cell-based; conditions: 24 h pre-treatment, then co-treatment with GCDCA
HUH-7 cells [2] = experiment: alamarBlue cell viability assay, HUH-7 cells treated with DCA; type: cell-based; conditions: 24 h before DCA 200 μM, then co-treated 24 h (FIG. 14a); for cytoprotective effect (alamarBlue): 100, 50, 10 μM
From the text: The difference between the observed cell viability in each of the assays is a consequence of the different properties measured in each assay. The alamarBlue™ assay uses resazurin-based reagents that function as cell health indicators by using the reducing power of living cells to quantitatively measure viability. Upon entering living cells, resazurin is reduced to resorufin, a compound that is red in color and highly fluorescent. The MTT assay is a colorimetric assay for assessing cell metabolic activity. NAD(P)H-dependent cellular oxidoreductase enzymes may, under defined conditions, reflect the number of viable cells present.

HUH-7 cells [3] = experiment: MTT cell viability assay, HUH-7 cells treated with DCA; type: cell-based; conditions: 100, 50, 10 μM; 24 h before DCA 200 μM, then co-treated 24 h (FIG. 14b)
From the text: The alamarBlue™ assay uses resazurin-based reagents that function as cell health indicators by using the reducing power of living cells to quantitatively measure viability. Upon entering living cells, resazurin is reduced to resorufin, a compound that is red in color and highly fluorescent. The MTT assay is a colorimetric assay for assessing cell metabolic activity. NAD(P)H-dependent cellular oxidoreductase enzymes may, under defined conditions, reflect the number of viable cells present.

HUH-7 cells [4] = experiment: alamarBlue cell viability assay, HUH-7 cells treated with tunicamycin
From the text: Tunicamycin is known to induce Endoplasmic Reticulum (ER) stress, resulting ultimately in induction of apopotosis.

[5] = system: hepatocytes in cell culture; conditions: in vitro, cited from earlier work
HUH-7 cells [6] = experiment: Cytoprotection model: DCA-induced cell death in HUH-7 cells
Procedure: HUH-7 cells were then treated with UDCA and TUDCA in increasing concentration.
HUH-7 cells in culture were then treated with a large library of UDCA 7-analogues to screen for compounds lacking intrinsic toxicity.

[7] = hamsters; cited from earlier work
[8] = oral, rats; cited from earlier work
[9] = compared to ursodeoxycholic acid; cited from earlier work
HepG2 cells = experiment: alamarBlue cell viability assay, HepG2 cells treated with tunicamycin; type: cell-based
[10] = system: ANIT-induced model of cholangitis; experiment: Rat ANIT-induced model of cholangitis; type: in vivo, Sprague-Dawley rats; conditions: oral, over a week, 20-30 mg/kg
Procedure: This rat model of cholangitis was employed to assess the efficacy of lead compounds by monitoring aspartate aminotransferase (AST) serum levels and alanine aminotransferase (ALT) serum levels.
Test compounds were to be assessed for their effect on liver damage using this chronic ANIT-induced model of cholangitis. UDCA was tested orally at high dose of 100 mg/kg in order to ensure an effect in the functional model that mimics its clinical effects in cholestasis patients. […] In this case ANIT was added to the chow at 0.1% inducing cholestasis and the compounds were tested by oral administration over the course of a week. Serum liver enzymes AST and ALT were measured as measures of liver damage and cholestasis. In comparison to the UDCA dose, the sulfonamide and triazole were dosed in the range 20-30 mg/kg.

[11] = cited from earlier work
[12] = 24 h before TM 5 μM, then co-treated 24 h (FIG. 15a)

Compound: C[C@H](CCC(=O)O)[C@H]1CC[C@H]2[C@@H]3CC[C@@H]4C[C@H](O)CC[C@]4(C)[C@H]3C[C@H](O)[C@]12C [DCA, deoxycholic acid]
- concentration range causing significant cell death (HUH-7 liver cancer cells; human): 200 to 500 µM

Compound: C[C@H](CCC(=O)NCCS(=O)(=O)O)[C@H]1CC[C@H]2[C@@H]3[C@@H](O)C[C@@H]4C[C@H](O)CC[C@]4(C)[C@H]3CC[C@]12C [TUDCA, tauroursodeoxycholic acid]
- significant cell death on treatment in increasing concentration (HUH-7 liver cancer cells): did not
- cytoprotective effect against GCDCA (HUH-7 cells [1]): significant cytoprotective effect
- cytoprotective effect (alamarBlue) (HUH-7 cells [2]): less than with UDCA and the sulphonamide (21)
- cytoprotective effect / increase in cell viability (MTT) (HUH-7 cells [3]): significantly lesser degree
- concentration giving complete maintenance of cell viability (or effects of similar size) (HUH-7 cells [4]; [12]): 100 µM
- protective effect in cell-based models ([5]; up to the mM concentration range): weakly but consistently protective
- protective effect when compound withdrawn before DCA (HUH-7 cells [6]; 24 h pre-treatment (UDCA 100 μM, TUDCA 1 mM), withdrawn, then DCA (FIG. 4c)): protective effect of TUDCA was not observed
- cell viability 24 h after DCA, compared to DCA alone (HUH-7 cells [6]; 24 h pre-treatment, then DCA 200 μM added, TUDCA 1 mM, UDCA 100 μM (FIG. 4b)): significant increase in cell viability
- cell viability at 24 h post treatment, combination with DCA (HUH-7 cells [6]; combined with DCA without pre-treatment (FIG. 4a)): did not lead to increased cell viability
- concentration giving statistically significant increase in cell viability (HUH-7 cells [6]; pre-/co-treatment with DCA (FIG. 5a)): ≥ 1 mM

Compound: C[C@H](CCC(=O)O)[C@H]1CCC2C3C(CC[C@@]21C)[C@@]1(C)CC[C@@H](O)CC1C[C@]3(C)O (stereo partly drawn)
- resistance to bacterial modification (metabolism) [7]: more resistant than the naturally occurring analogues

Compound: CC(CCC(=O)NCC(=O)O)C1CCC2C3C(O)CC4CC(O)CCC4(C)C3CCC12C (stereo not drawn) [GCDCA, glycochenodeoxycholic acid]
- effect on cell viability (HUH-7 liver cancer cells): reduction in cell viability at higher concentration with greater evidence of necrosis

Compound: CC(CCC(=O)O)C1CCC2C3C(OS(=O)(=O)O)CC4CC(O)CCC4(C)C3CCC12C (stereo not drawn) [C-7 sulfate]
- faecal lithocholic acid/deoxycholic acid ratio [8]: reduced

Compound: CC(CCC(=O)O)C1CCC2C3C(O)CC4CC(OS(=O)(=O)O)CCC4(C)C3CCC12C (stereo not drawn) [C-3 sulfate]
- faecal lithocholic acid [8]: increased faecal lithocholic acid significantly

Compound: C[C@H](CCC(=O)O)[C@H]1CCC2C3C(CC[C@@]21C)[C@@]1(C)CC[C@@H](O)CC1[C@@H](C)[C@@H]3O (stereo partly drawn) [6-α-methyl ursodeoxycholic acid]
- metabolic stability [9]: increased metabolic stability compared to ursodeoxycholic acid

Compound: C[C@H](CCC(=O)O)[C@H]1CC[C@H]2[C@@H]3[C@@H](NS(C)(=O)=O)C[C@@H]4C[C@H](O)CC[C@]4(C)[C@H]3CC[C@]12C [Compound 21, 3α-hydroxy-7β-(methanesulfonamido)-5β-cholanoate]
- cytoprotective effect (alamarBlue) (HUH-7 cells [2]): significant cytoprotective effect at all concentrations measured
- concentration with almost complete cell viability/cytoprotection (HUH-7 cells [2]): ≥ 50 µM
- cytoprotective effect / increase in cell viability (MTT) (HUH-7 cells [3]): significant cytoprotective effect
- cell viability on pre/co-treatment with tunicamycin (HUH-7 cells [4]; [12]): significant increase in cell viability
- concentration giving complete maintenance of cell viability (or effects of similar size) (HUH-7 cells [4]; [12]): 10 µM
- cytoprotective effect against tunicamycin (HepG2 cells; 24 h before TM 5 μM, then co-treated 24 h (FIG. 15b)): cytoprotective effect of sulfonamide (21) was also observed
- comparison with UDCA and TUDCA under the same conditions (HepG2 cells; lowest concentration tested of sulfonamide (21)): outperformed all concentrations of UDCA and TUDCA
- AST serum levels ([10]; ANIT 0.1% in chow (FIG. 8a)): normalised AST serum levels
- ALT serum levels ([10]; ANIT 0.1% in chow (FIG. 8b)): normalised ALT serum levels
- concentration range of effective inhibition of DCA-induced cell death (HUH-7 cells [6]; FIG. 7): 10 to 100 µM

Compound: C[C@H](CCC(=O)O)[C@H]1CC[C@H]2[C@@H]3[C@@H](O)C[C@@H]4C[C@H](O)CC[C@]4(C)[C@H]3CC[C@]12C [UDCA, ursodeoxycholic acid]
- significant cell death on treatment in increasing concentration (HUH-7 liver cancer cells; human): 300 μM-1 mM
- concentration giving complete maintenance of cell viability (or effects of similar size) (HUH-7 cells [4]; [12]): 100 µM
- fraction absorbed ([11]; oral administration): 30-60%
- share of absorption occurring in the small intestine ([11]; via passive diffusion): around 80%
- concentration at which it can contribute to cell death [5]: > 200 µM
- faecal lithocholic acid [8]: increased faecal lithocholic acid significantly

Compound: tunicamycin
- decrease in cell viability (alamarBlue) (HUH-7 cells [4]; tunicamycin alone, 5 μM, HUH7): approximately 30%

Reference: patent publication US12522631B2, “Compounds for use in the treatment of liver disease” (The Provost, Fellows, Foundation Scholars, And The Other …, priority 2019, dated 2026)
